Source: patent US9114126B2, “Na/K-ATPase ligands, ouabain antagonists, assays and uses thereof” (The University of Toledo, priority 2009, dated 2015)
Entries after “also recorded” stand apart in the source; their conditions may differ.

Key:
purified Na/K-ATPase [1] = target: T1, purified Na/K-ATPase (Sus scrofa (Pig), UniProt P05024); assay: Na/K-ATPase activity, 96-well high throughput screen assay (released phosphate, BIOMOL GREEN); assay type: biochemical; details: for effect of changes in K+ concentration on compound-induced inhibition of Na/K-ATPase: data not shown
Protocol: The purified Na/K-ATPase was prepared from pig kidney. The specific activities of Na/K-ATPase of various kidney preparations were in the range of 900-1,200 μmol/mg/h, which were greater than 95% of the total ATPase activity. The high throughput screen is conducted in a 96-well format with the final reaction volume of 100 μl containing the following components: 100 mM NaCl, 20 mM KCl, 1 mM MgCl2, 1 mM EGTA, 20 mM Tris-HCl (pH 7.4) and 0.2 μg of purified Na/K-ATPase. After compounds were added, mixtures were incubated for 15 min at 37° C. for 15 min and reaction was initiated by adding 2 mM ATP.Mg mixture.
Reactions were carried out for 15 min and then stopped by the addition of 100 μl ice-cold trichloroacetic acid. Reaction mixtures were cleared by centrifugation, and assayed for released phosphate using the BIOMOL GREEN™ Reagent according to the manufacturer's instructions. In addition, the control Na/K-ATPase activity was measured in the presence and absence of 1 mM ouabain, and taken as 100%. Furthermore, 5 μM ouabain and 0.1% of DMSO were included in each plate as a positive and a vehicle control, respectively.

ERKs in LLC-PK1 cells = assay: p-ERK immunostaining in LLC-PK1 cells; assay type: cell-based, pig; details: for cellular ERK activity (active ERKs by immunostaining): LLC-PK1, 10 min, 100 nM ouabain, MB7 from 100 nM to 10 μM
Protocol: FIG. 4B: LLC-PK1 cells were treated with MB7 or ouabain for 10 minutes and were immunostained with the ERK/MAPK (Phospho-Thr202/Tyr204) Phosphorylation/Translocation Cell-Based Assay Kit according to the manufacturer's instructions. The images were collected as described under “Experimental Procedures.” The scale bar represents […]. Images from a representative experiment are shown. The quantitative data of p-ERK were collected from 40 different fields in three independent experiments and expressed as mean±S.E. *, p<0.05 versus control.
LLC-PK1 cells grown on coverslips were serum starved for 24 h and treated with MB7 or ouabain for different times Immunostaining of p-ERK was performed using the commercial available ERK/MAPK (Phospho-Thr202/Tyr204) Phosphorylation/Translocation Cell-Based Assay Kit according to the manufacturer's instructions. The signals were detected by a Leica confocal microscope. Leica confocal software was used for data analysis.
(§1) LLC-PK1 cells grown on coverslips were serum starved for 24 h and treated with MB5 or ouabain for different times Immunostaining of p-ERK was performed using the commercial available ERK/MAPK (Phospho-Thr202/Tyr204) Phosphorylation/Translocation Cell-Based Assay Kit according to the manufacturer's instructions. The signals were detected by a Leica confocal microscope. Leica confocal software was used for data analysis.

Na/K-ATPase/Src complex = Na/K-ATPase/Src complex (Sus scrofa (Pig), UniProt P05024); assay: Activation of receptor Na/K-ATPase/Src complex (pY418 Western blot); assay type: biochemical; details: reconstituted complex in test tube; ouabain 10 μM, MB7 1 and 10 μM
Protocol: FIG. 3: Effects of MB7 and ouabain on receptor Na/K-ATPase/Src complex. The purified Na/K-ATPase (2 μg) and purified Src were incubated in the presence of either 10 μM ouabain or 1 and 10 μM MB7 for 15 min and assayed for Src activation as described in “Experimental Procedures”. Values are mean SE of at least three independent experiments. **p<0.01 compared with control.
The activity of receptor Na/K-ATPase/Src complex was assayed. Briefly, the purified Src (4.5 U) was incubated with 2 μg of the purified Na/K-ATPase in phosphate-buffered saline (PBS) for 30 min at 37° C. Afterward, the Na/K-ATPase/Src complex was exposed to ouabain or MB7 for 10 min. Reaction was initiated by addition of 2 mM ATP/Mg^2+, continued for 5 min at 37° C. and was stopped by addition of SDS sample buffer. The activation of Src was measured by Western blot using anti-pY418 antibody. Total Src was also probed for loading control.

Src in A549 cells = assay: Src activation in A549 cells (Western blot); assay type: cell-based, human; details: 10 min; 100 nM ouabain, MB7 up to 10 μM
Protocol: FIG. 4A: Effects of MB7 and ouabain on Src and ERKs. A549 cells were treated with ouabain or MB7 for 10 min and cell lysates (50 μg/lane) were separated by SDS-PAGE and analyzed for Src activation as in FIG. 3. The values are mean±S.E. from four separate experiments. *, p<0.05 versus control.
The pig kidney epithelia cells (LLC-PK1 cells) and human lung cancer cells (A549 cells) were obtained from ATCC and maintained in Dulbecco's modified Eagle's medium (DMEM) in the presence of 10% FBS, 100 units/ml penicillin, and 100 μg/ml streptomycin in a 5% CO2 humidified incubator. To eliminate the confounding effect of growth factors in the serum, cells were serum starved for 24 h before experiments unless otherwise indicated.
Cells were washed with PBS and solubilized in ice-cold RIPA buffer containing 1% Nonidet P-40, 1% sodium deoxycholate, 150 mM NaCl, 1 mM EDTA, 1 mM phenylmethylsulfonyl fluoride, 1 mM sodium orthovanadate, 1 mM NaF, 10 μg/ml aprotinin, 10 μg/ml leupeptin, and 50 mM Tris-HCl (pH 7.4) as previously described (13). Cell lysates were then cleared by centrifugation at 14,000 rpm, and supernatants were used for protein assay and subjected to Western blot analysis. Samples were separated on SDS-PAGE (50 μg/lane) and transferred to a cellulose membrane. […] Protein signals were detected using an ECL kit and quantified using a Bio-Rad GS-670 imaging densitometer.

Na-ATPase = Na-ATPase (Sus scrofa (Pig), UniProt P05024); assay: Na-ATPase activity inhibition; assay type: biochemical
Protocol: In the experiments depicted in FIG. 1A, the dose-response curves of MB7 were compared with ouabain. […] Furthermore, 10 μM MB7 produced 58±6% inhibition of Na-ATPase as did on Na/K-ATPase.

[2] = system: ouabain-induced ERK activation in LLC-PK1 cells; assay: Ouabain-induced activation of ERKs in LLC-PK1 cells after MB5 pretreatment; assay type: cell-based, pig; details: 15 min pretreatment, ouabain 1 nM and 100 nM
Protocol: FIG. 9B: Effects of MB5 on ouabain-induced activation of ERKs. LLC-PK1 cells were pretreated with different concentrations of MB5 (1 nM, 10 μM) for 15 min, exposed to 1 nM ouabain for 10 min, and assayed for active ERKs as in FIG. 9A. A representative set of images is shown.
FIG. 9C: Effects of MB5 on ouabain-induced activation of ERKs. LLC-PK1 cells were pretreated with different concentrations of MB5 (1 nM, 10 μM) for 15 min, exposed to 100 nM ouabain for 10 min, and assayed for active ERKs as in FIG. 9A. A representative set of images is shown.
FIG. 9D: Effects of MB5 on ouabain-induced activation of ERKs. LLC-PK1 cells were pretreated with different concentrations of MB5 (1 nM, 10 μM) for 15 min, exposed to 1 nM ouabain for 1 hour, and assayed for active ERKs as in FIG. 9A. A representative set of images is shown.
as §1
Ouabain stimulates protein kinase cascades via a Src-dependent pathway in LLC-PK1 cells. […]

purified Na/K-ATPase [3] = target: T1, purified Na/K-ATPase; assay: Na/K-ATPase activity assay (Example II), two-phase inhibition; assay type: biochemical
Protocol: FIGS. 7A-7C: Dose-dependent inhibition of Na/K-ATPase by MB5: FIG. 7A: The two phase inhibition of both low and high affinity.
The purified Na/K-ATPase was prepared from pig kidney. The specific activities of Na/K-ATPase of various kidney preparations were in the range of 900-1,200 μmol/mg/h, which were greater than 95% of the total ATPase activity. The Na/K-ATPase assay was conducted in the following reaction buffer with the final volume of 500 μl: 100 mM NaCl, 20 mM KCl, 1 mM MgCl2, 1 mM EGTA, 20 mM Tris-HCl (pH 7.4) and 1 μg of purified Na/K-ATPase. After compounds were added, mixtures were incubated for 15 min at 37° C. for 15 min and reaction was initiated by adding 2 mM ATP.Mg mixture. Reactions were carried out for 15 min and then stopped by the addition of 300 μl ice-cold trichloroacetic acid. Reaction mixtures were cleared by centrifugation, and assayed for released phosphate using the BIOMOL GREEN™ Reagent according to the manufacturer's instructions.

purified Na/K-ATPase [4] = target: T1, purified Na/K-ATPase; assay: 3H-ouabain binding to the purified Na/K-ATPase; details: 20 nM 3H ouabain
Protocol: FIG. 8: Effects of MB5 on ouabain binding to the purified Na/K-ATPase. The purified Na/K-ATPase (2 μg) was incubated with 20 nM ^3H ouabain in the presence of different concentrations of MB5.

[5] = system: EGF or dopamine-induced ERK activation in LLC-PK1 cells; assay: EGF- or dopamine-induced activation of ERKs in LLC-PK1 cells after MB5 pretreatment; assay type: cell-based, pig; details: MB5 1 nM, 10 μM, 15 min pretreatment
Protocol: FIG. 9E: Effects of MB5 on stimuli-induced activation of ERKs. LLC-PK1 cells were pretreated with different concentrations of MB5 (1 nM, 10 μM) for 15 min, exposed to epidermal growth factor (EGF) or Dopamine stimuli for either 10 or 3 min, and assayed for active ERKs as in FIG. 9A. A representative set of images is shown.
as §1
Ouabain stimulates protein kinase cascades via a Src-dependent pathway in LLC-PK1 cells. To determine whether MB5 can antagonize ouabain-induced signal transduction, treated LLC-PK1 cells were pre-treated with different concentrations of MB5 for 15 min and then exposed to ouabain or other stimuli.

[6] = inhibition of purified pig kidney Na/K-ATPase, Table II, read-out: IC50

COc1ccc2oc3cc(OC)c(OC)c(OC)c3c(=O)c2c1 [C-017]
IC50 (purified Na/K-ATPase [1]; [6]): > 100 µM

O=c1c2cccc(O)c2oc2cc(O)cc(O)c12 [MB3, 1,3,5-Trihydroxyxanthone]
IC50 (purified Na/K-ATPase [1]; [6]): 65 µM

C[C@@H]1O[C@@H](O[C@H]2C[C@@H](O)[C@]3(CO)[C@H]4[C@H](O)C[C@]5(C)[C@@H](C6=CC(=O)OC6)CC[C@]5(O)[C@@H]4CC[C@]3(O)C2)[C@H](O)[C@H](O)[C@H]1O [ouabain]
cellular ERK activity (active ERKs by immunostaining) (ERKs in LLC-PK1 cells): increased cellular amount of active ERKs
ERK stimulation (ERKs in LLC-PK1 cells; LLC-PK1, ouabain 1 nM and 100 nM, time and concentration-dependent): stimulated ERKs
IC50 (purified Na/K-ATPase [1]): ~5 µM
effect of changes in K+ concentration on compound-induced inhibition of Na/K-ATPase (purified Na/K-ATPase [1]): antagonized
activation of Na/K-ATPase-associated Src (Na/K-ATPase/Src complex): stimulated
Src activation in A549 cells (Src in A549 cells): stimulated Src

O=c1c2ccc(O)c(O)c2oc2cc(O)cc(O)c12 [MB6, 1,3,5,6-Tetrahydroxyxanthone]
IC50 (purified Na/K-ATPase [1]; [6]): 60 µM

COc1cc(O)c2c(=O)c3c(OC)c(O)ccc3oc2c1 [2027BA1]
IC50 (purified Na/K-ATPase [1]; [6]): > 100 µM

COc1cc(O)c2c(=O)c3c(O)c(OC)ccc3oc2c1 [2027BA2]
IC50 (purified Na/K-ATPase [1]; [6]): > 100 µM

O=c1c2ccccc2oc2ccccc12 [xanthone, reference compound]
inhibition of Na/K-ATPase activity (purified Na/K-ATPase [1]; dose-response curves): failed to inhibit; also recorded: no detectable inhibition

O=c1c2ccccc2oc2cc(O)cc(O)c12 [MB1, 1,3-Dihydroxyxanthone]
IC50 (purified Na/K-ATPase [1]; [6]): > 100 µM

O=c1c2ccc(O)c(O)c2oc2c(O)c(O)ccc12 [MB7, 3,4,5,6-Tetrahydroxyxanthone]
inhibition at 10 µM (Na-ATPase): 58 ± 6%
cellular ERK activity (active ERKs by immunostaining) (ERKs in LLC-PK1 cells): failed to affect cellular ERK activity
effect on Na+ and ATP affinities of Na/K-ATPase (purified Na/K-ATPase [1]; MB7 at 10 μM, substrate dependence, FIG. 2A-2B): reduced both Na^+ and ATP affinities
effect of changes in K+ concentration on compound-induced inhibition of Na/K-ATPase (purified Na/K-ATPase [1]): no effect
IC50 (purified Na/K-ATPase [1]; dose-dependent inhibition of Na/K-ATPase, FIG. 1A, read-out: apparent IC50): 5 µM
IC50 (purified Na/K-ATPase [1]; [6]): 5 µM
activation of Na/K-ATPase-associated Src (Na/K-ATPase/Src complex): failed to activate Src
Src activation in A549 cells (Src in A549 cells): failed to do the same

COc1ccc2c(=O)c3ccc(OC)c(OC)c3oc2c1 [MB8]
IC50 (purified Na/K-ATPase [1]; [6]): > 100 µM

O=c1c2cccc(O)c2oc2c(O)c(O)ccc12 [MB5, 3,4,5-Trihydroxyxanthone]
effect on ouabain-induced activation of ERKs ([2]; MB5 at 1 nM): significantly reduce
effect on ouabain-induced activation of ERKs ([2]; MB5 at 10 μM): completely blocked
inhibition at 50 µM (purified Na/K-ATPase [3]; at about 50 μM, read-out: inhibition by low affinity binding): 100%
inhibition of the ATPase activity by high affinity inhibition (purified Na/K-ATPase [3]; high affinity phase): about 25%
IC50 (purified Na/K-ATPase [3]; high affinity site, sub-nM concentrations): 0.04 nM
IC50 (purified Na/K-ATPase [1]; [6]): 10 µM
concentration at which significant inhibition of ouabain binding was detected (purified Na/K-ATPase [4]): 0.1 nM
maximal inhibition of ouabain binding (purified Na/K-ATPase [4]; 10 μM MB5): 30%
effect on ERK activation induced by EGF or dopamine [5]: failed to affect ERK activation

O=c1c2ccccc2oc2c(O)c(O)ccc12 [MB2, 3,4-Dihydroxyxanthone]
IC50 (purified Na/K-ATPase [1]; [6]): > 100 µM
